Patent US4468511A, “C-20- And C-23-Modified macrolide derivatives” (Eli Lilly and Company, priority 1983, dated 1984)
≈ marks a conversion by molar mass, not a printed value. Read-outs that look alike come from different tables or passages of the source.

How the values were obtained:
Escherichia coli EC14 = assay: MIC, standard agar-dilution assay; assay type: cell-based; conditions: agar-dilution; Escherichia coli EC14; read-out: MIC
Protocol: (§1) Certain of the derivatives are active against some gram-negative bacteria, such as Pasteurella species. The MIC's in Table II were determined by standard agar-dilution assays. The MIC's in Table III were obtained using a conventional broth-dilution microtiter test.

Escherichia coli TEM = assay: MIC, standard agar-dilution assay; assay type: cell-based; conditions: agar-dilution; Escherichia coli TEM; read-out: MIC
Outline: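 Antibacterial activity toward the gram-negative organism Escherichia coli was assessed by conventional agar dilution. The MIC, reported in ug/mL, is the minimum compound concentration on agar that prevents growth.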

[1] = tested on: Klebsiella pneumoniae KAE; assay: MIC, standard agar-dilution assay; assay type: cell-based; conditions: agar-dilution; Klebsiella pneumoniae KAE; read-out: MIC
Outline: (§2)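 Broth microdilution MICs cover P. hemolytica, P. multocida and M. gallisepticum. The agar-dilution MIC covers K. pneumoniae only.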

[2] = tested on: Klebsiella pneumoniae X26; assay: MIC, standard agar-dilution assay; assay type: cell-based
Outline: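 Method depends on organism. Klebsiella pneumoniae was assayed on agar. Pasteurella spp. and Mycoplasma gallisepticum were assayed in broth microtiter dilution.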

[3] = tested on: Staphylococcus aureus V41; assay: MIC, standard agar-dilution assay; assay type: cell-based
Protocol: as §1

[4] = tested on: Staphylococcus aureus X1.1; assay: MIC, standard agar-dilution assay; assay type: cell-based; conditions: Staphylococcus aureus, X1.1
Outline: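 A standard agar-dilution assay was used to test compounds against the Staphylococcus aureus isolate X1.1. Bacterial growth on agar with different compound concentrations was assessed, and the minimum inhibitory concentration was recorded in ug/mL.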

[5] = tested on: Streptococcus Group D X66; assay: MIC, standard agar-dilution assay; assay type: cell-based; conditions: agar-dilution; Streptococcus Group D X66; read-out: MIC
Protocol: as §1

[6] = tested on: Streptococcus pneumoniae Park I; assay: MIC, standard agar-dilution assay; assay type: cell-based; conditions: Streptococcus pneumoniae
Protocol: as §1

[7] = tested on: Streptococcus pyogenes 9960; assay: MIC, standard agar-dilution assay; assay type: cell-based
Protocol: as §1

[8] = tested on: Streptococcus pyogenes C203; assay: MIC, standard agar-dilution assay; assay type: cell-based
Protocol: as §1

[9] = tested on: Haemophilus influenzae 76; assay: MIC, standard agar-dilution assay; assay type: cell-based
Protocol: (§3) The MIC's in Table II were determined by standard agar-dilution assays. The MIC's in Table III were obtained using a conventional broth-dilution microtiter test.

[10] = tested on: Haemophilus influenzae C.L.; assay: MIC, standard agar-dilution assay; assay type: cell-based
Protocol: as §3

[11] = tested on: Staphylococcus aureus X400; assay: MIC, standard agar-dilution assay; assay type: cell-based
Protocol: as §3

[12] = tested on: Staphylococcus epidermidis EPI2; assay: MIC, standard agar-dilution assay; assay type: cell-based; conditions: Staphylococcus epidermidis, EPI2
Protocol: as §3

[13] = tested on: Staphylococcus aureus S13E; assay: microbe, parasite or virus in culture; assay type: cell-based
Protocol: as §3

[14] = tested on: Staphylococcus epidermidis EPI1; assay: microbe, parasite or virus in culture; assay type: cell-based
Protocol: as §3

[15] = tested on: Mycoplasma gallisepticum 34159; assay: MIC, conventional broth-dilution microtiter test; assay type: cell-based; conditions: Mycoplasmoides gallisepticum; broth-dilution microtiter; Mycoplasma gallisepticum 34159, Resistant strain; read-out: MIC
Outline: as §2

[16] = tested on: Mycoplasma gallisepticum 41313; assay: MIC, conventional broth-dilution microtiter test; assay type: cell-based; conditions: Mycoplasmoides gallisepticum; broth-dilution microtiter; Mycoplasma gallisepticum 41313, Resistant strain; read-out: MIC
Outline: as §2

Mycoplasma gallisepticum = assay: MIC, conventional broth-dilution microtiter test; assay type: cell-based; conditions: Mycoplasmoides gallisepticum
Outline: as §2

Mycoplasma hyorhinis = assay: MIC, conventional broth-dilution microtiter test; assay type: cell-based; conditions: broth-dilution microtiter; Mycoplasma hyorhinis; read-out: MIC
Outline: (§4)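 Two formats were used. Broth dilution in microtiter plates served for Pasteurella and Mycoplasma, while agar dilution served for Klebsiella.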

Mycoplasma synoviae = assay: MIC, conventional broth-dilution microtiter test; assay type: cell-based; conditions: Mycoplasmopsis synoviae
Outline: as §4

[17] = tested on: Pasteurella hemolytica 22C; assay: MIC, conventional broth-dilution microtiter test; assay type: cell-based; conditions: broth-dilution microtiter; Pasteurella hemolytica 22C; read-out: MIC
Outline: as §2

[18] = tested on: Pasteurella hemolytica 23C; assay: MIC, conventional broth-dilution microtiter test; assay type: cell-based; conditions: broth-dilution microtiter; Pasteurella hemolytica 23C; read-out: MIC
Outline: as §2

[19] = tested on: Pasteurella hemolytica 41D; assay: MIC, conventional broth-dilution microtiter test; assay type: cell-based; conditions: broth-dilution microtiter; Pasteurella hemolytica 41D; read-out: MIC
Outline: as §2

[20] = tested on: Pasteurella multocida 17E; assay: MIC, conventional broth-dilution microtiter test; assay type: cell-based; conditions: broth-dilution microtiter; Pasteurella multocida 17E, Bovine isolate; read-out: MIC
Outline: as §2

[21] = tested on: Pasteurella multocida 22A; assay: MIC, conventional broth-dilution microtiter test; assay type: cell-based; conditions: broth-dilution microtiter; Pasteurella multocida 22A; read-out: MIC
Outline: as §2

[22] = tested on: Pasteurella multocida 40G; assay: MIC, conventional broth-dilution microtiter test; assay type: cell-based; conditions: broth-dilution microtiter; Pasteurella multocida 40G; read-out: MIC
Outline: as §2

[23] = tested on: Pasteurella multocida 60A; assay: MIC, conventional broth-dilution microtiter test; assay type: cell-based; conditions: broth-dilution microtiter; Pasteurella multocida 60A, Avian isolate; read-out: MIC
Outline: as §2

[24] = tested on: Pasteurella multocida 68C; assay: MIC, conventional broth-dilution microtiter test; assay type: cell-based; conditions: broth-dilution microtiter; Pasteurella multocida 68C; read-out: MIC
Outline: as §2

Staphylococcus aureus = assay: MIC, conventional broth-dilution microtiter test; assay type: cell-based
Protocol: as §1

Streptococcus sp. 80 = assay: MIC, conventional broth-dilution microtiter test; assay type: cell-based
Protocol: as §1

[25] = tested on: Streptococcus pyogenes C203; assay: Protection of mice experimentally infected with S. pyogenes C203; assay type: in vivo
Protocol: Some of the derivatives of this invention have shown in vivo antimicrobial activity against experimentally-induced infections in laboratory animals. When two doses of test compound were administered to mice experimentally infected with S. pyogenes C203, the activity observed was measured as an ED50 value [effective dose in mg/kg to protect 50% of the test animals: see Warren Wick, et al., J. Bacteriol. 81, 233-235 (1961)].

[26] = C203, mice, oral, mg/kg × 2, doses given 1 and 4 hours postinfection, read-out: ED50 Oral

SMILES: CCC1CC(C)C(=O)C=CC(C)=CC(CSc2ccccc2)C(CC)OC(=O)CC(O)C(C)C1OC1OC(C)C(O)C(N(C)C)C1O (stereo not drawn) [Compound 42, 23-Phenylthio-20,23-dideoxy-20-dihydro-OMT]
- MIC (Escherichia coli EC14): > 128 µg/mL
- MIC (Escherichia coli TEM): > 128 µg/mL
- MIC [1]: > 128 µg/mL
- MIC ([2]; agar-dilution, Klebsiella pneumoniae X26, read-out: MIC): 16 µg/mL (≈ 23.7 µM)
- MIC ([3]; agar-dilution, Staphylococcus aureus V41, Penicillin-resistant strain, read-out: MIC): 0.5 µg/mL (≈ 0.74 µM)
- MIC [4]: 1 µg/mL (≈ 1.48 µM)
- MIC [5]: 0.5 µg/mL (≈ 0.74 µM)
- MIC [6]: 0.12 µg/mL (≈ 0.178 µM)
- MIC [7]; 9960: 1 µg/mL (≈ 1.48 µM)
- MIC ([8]; Streptococcus pyogenes, C203): 1 µg/mL (≈ 1.48 µM)
- MIC ([9]; Haemophilus influenzae, 76): 16 µg/mL (≈ 23.7 µM)
- MIC ([10]; Haemophilus influenzae): 16 µg/mL (≈ 23.7 µM)
- MIC ([11]; Staphylococcus aureus, X400): 1 µg/mL (≈ 1.48 µM)
- MIC [12]: 1 µg/mL (≈ 1.48 µM)
- MIC [13]: 1 µg/mL (≈ 1.48 µM)
- MIC ([14]; agar-dilution, Staphylococcus epidermidis EPI1, read-out: MIC): 0.5 µg/mL (≈ 0.74 µM)
- MIC [15]: 25 µg/mL (≈ 37 µM)
- MIC [16]: 25 µg/mL (≈ 37 µM)
- MIC (Mycoplasma gallisepticum): 6.25 µg/mL (≈ 9.25 µM)
- MIC (Mycoplasma hyorhinis): 25 µg/mL (≈ 37 µM)
- MIC (Mycoplasma synoviae): 6.25 µg/mL (≈ 9.25 µM)
- MIC [17]: 25 µg/mL (≈ 37 µM)
- MIC [18]: 25 µg/mL (≈ 37 µM)
- MIC [19]: 25 µg/mL (≈ 37 µM)
- MIC [20]: 25 µg/mL (≈ 37 µM)
- MIC [21]: 25 µg/mL (≈ 37 µM)
- MIC [22]: 25 µg/mL (≈ 37 µM)
- MIC [23]: 12.5 µg/mL (≈ 18.5 µM)
- MIC [24]: 25 µg/mL (≈ 37 µM)
- MIC (Staphylococcus aureus; broth-dilution microtiter, read-out: MIC): 1.56 µg/mL (≈ 2.31 µM)
- MIC (Streptococcus sp. 80; broth-dilution microtiter, Streptococcus sp. 80, read-out: MIC): 1.56 µg/mL (≈ 2.31 µM)
- ED50 [25, 26]: 78 mg/kg
- ED50 ([25]; C203, sc, read-out: ED50 Subcutaneous): > 25 mg/kg

SMILES: CCC1CC(C)C(=O)C=CC(C)=CC(COc2cccc(N(C)C)c2)C(CC)OC(=O)CC(O)C(C)C1OC1OC(C)C(O)C(N(C)C)C1O (stereo not drawn) [Compound 44, 23-O-(m-Dimethylaminophenyl)-20-deoxy-20-dihydro-OMT]
- MIC (Escherichia coli EC14): > 128 µg/mL
- MIC (Escherichia coli TEM): > 128 µg/mL
- MIC [1]: > 128 µg/mL
- MIC ([2]; Klebsiella pneumoniae, X26): 32 µg/mL (≈ 45.5 µM)
- MIC ([3]; Staphylococcus aureus, V41): 1 µg/mL (≈ 1.42 µM)
- MIC [4]: 1 µg/mL (≈ 1.42 µM)
- MIC [5]: 2 µg/mL (≈ 2.85 µM)
- MIC [6]: 0.5 µg/mL (≈ 0.711 µM)
- MIC ([7]; agar-dilution, Streptococcus 9960, read-out: MIC): 2 µg/mL (≈ 2.85 µM)
- MIC ([8]; agar-dilution, Streptococcus pyogenes C203, read-out: MIC): 4 µg/mL (≈ 5.69 µM)
- MIC ([9]; agar-dilution, Haemophilus influenzae 76, Ampicillin-resistant strain, read-out: MIC): 16 µg/mL (≈ 22.8 µM)
- MIC ([10]; agar-dilution, Haemophilus influenzae C.L., Ampicillin-sensitive strain, read-out: MIC): 16 µg/mL (≈ 22.8 µM)
- MIC ([11]; agar-dilution, Staphylococcus aureus X400, Methicillin-resistant strain, read-out: MIC): 2 µg/mL (≈ 2.85 µM)
- MIC [12]: 0.5 µg/mL (≈ 0.711 µM)
- MIC [13]: 1 µg/mL (≈ 1.42 µM)
- MIC ([14]; Staphylococcus epidermidis, EPI1): 1 µg/mL (≈ 1.42 µM)
- MIC [15]: 12.5 µg/mL (≈ 17.8 µM)
- MIC [16]: 12.5 µg/mL (≈ 17.8 µM)
- MIC (Mycoplasma gallisepticum): 3.12 µg/mL (≈ 4.44 µM)
- MIC (Mycoplasma hyorhinis): 50 µg/mL (≈ 71.1 µM)
- MIC (Mycoplasma synoviae; broth-dilution microtiter, Mycoplasma synoviae, read-out: MIC): 12.5 µg/mL (≈ 17.8 µM)
- MIC [17]: > 50 µg/mL
- MIC [18]: > 50 µg/mL
- MIC [19]: > 50 µg/mL
- MIC [20]: 50 µg/mL (≈ 71.1 µM)
- MIC [21]: 50 µg/mL (≈ 71.1 µM)
- MIC [22]: 25 µg/mL (≈ 35.6 µM)
- MIC [23]: 25 µg/mL (≈ 35.6 µM)
- MIC [24]: 25 µg/mL (≈ 35.6 µM)
- MIC (Staphylococcus aureus): 1.56 µg/mL (≈ 2.22 µM)
- MIC (Streptococcus sp. 80; Streptococcus, SP.80): 3.12 µg/mL (≈ 4.44 µM)
- ED50 [25, 26]: > 50 mg/kg
- ED50 ([25]; C203, sc, mice, subcutaneous, mg/kg × 2, doses given 1 and 4 hours postinfection, read-out: ED50 Subcutaneous): > 10 mg/kg
